Assay results reported in patent US8940739B2, “Compound of a reverse-turn mimetic and a production method and use therefor” (JW Pharmaceutical Corporation, priority 2010, dated 2015).

system: MV-4-11 (human, Acute Myeloid Leukemia cell line) cells; assay: Cell growth inhibition assay, GI50 of MV-4-11; assay type: cell-based; conditions: Homo sapiens, MV4-11, 72 h, MV-4-11 cells
Experimental: The anti-proliferative activity (cell growth inhibition assay) of the compounds according to the present invention against AML (Acute Myeloid Leukemia) cancer cells was measured. […] The lower the GI50 value, the higher the anti-proliferative activity.
A cell growth Inhibition assay was performed to investigate the rate of inhibition of cell proliferation by the compounds of the present invention. MV-4-11 (human, Acute Myeloid Leukemia cell line) cells were cultured in Iscove's modified Dulbecco's medium (IMDM) including 10% fetal bovine serum (FBS), 1× penicillin/streptomycin (10,000 units/ml Penicillin, […] Streptomycin in 0.85% NaCl). MV-4-11 cells were harvested with the IMDM and 5×10^4 cells/well were transferred to each well of 96-well culture plates (Nunc, #167008).
The compounds of Examples 1 to 5 were exposed to serial dilution and duplicated for each concentration. For the serial dilution, the compounds of the present invention were repeatedly diluted with the same volume of media onto 96-well assay block (costar, #3956). After the dilution, each compound was added to each well.
Also, the background absorbance was measured during the treatment with the test compounds by replacing the test compound with IMDM in the negative control plate. The plates were incubated for three days (72 hours) at 37 in the humidified incubator containing 5% CO2. On the last day, 20 µl of a CellTiter 96 Aqueous One Solution (Promega #G3581) was added to the culture in each well and the plates were incubated for a few hours at 37 in the humidified incubator containing 5% CO2. After the incubation, the absorbance of each cell was measured at 490 nm using an EnVision (Perkinelmer, USA).
The GI50 values were calculated using a Prism 3.0 program.

| GI50 | Structure (SMILES) |
| --- | --- |
| 1.3 nM | C=CCN1CC(=O)N2[C@@H](Cc3ccc(O)cc3)C(=O)N(Cc3cccc4c(-c5ccc(NC(=O)N6CCN(C)CC6)cc5)cn(C)c34)C[C@@H]2N1C(=O)NCc1ccccc1 [Compound D-67] |
| 1.3 nM | C=CCN1CC(=O)N2[C@@H](Cc3ccc(O)cc3)C(=O)N(Cc3cccc4c(-c5ccc(C(=O)NNCC(F)(F)F)cc5)cn(C)c34)C[C@@H]2N1C(=O)NCc1ccccc1 [Compound D-37] |
| 0.1 nM | C=CCN1CC(=O)N2[C@@H](Cc3ccc(O)cc3)C(=O)N(Cc3cccc4c(-c5ccc(C(=O)N6CCN(C)CC6)cc5)cn(C)c34)C[C@@H]2N1C(=O)NCc1ccccc1 [Compound D-3] |
| 1.3 nM | C=CCN1CC(=O)N2[C@@H](Cc3ccc(O)cc3)C(=O)N(Cc3cccc4c(C(=O)N(C)Cc5ccc(N(C)C)cc5)cn(C)c34)C[C@@H]2N1C(=O)NCc1ccccc1 [Compound F-46] |
| 1.3 nM | C=CCN1CC(=O)N2[C@@H](Cc3ccc(O)cc3)C(=O)N(Cc3cccc4c(-c5ccc(NC(=O)C6CCCN(C)C6)cc5)cn(C)c34)C[C@@H]2N1C(=O)NCc1ccccc1 (stereo partly drawn) [Compound D-63] |
| 1.2 nM | C=CCN1CC(=O)N2[C@@H](Cc3ccc(O)cc3)C(=O)N(Cc3cccc4c(-c5ccc(NC(=O)c6ccc(CN(C)C)cc6)cc5)cn(C)c34)C[C@@H]2N1C(=O)NCc1ccccc1 [Compound D-54] |
| 19 nM | C=CCN1CC(=O)N2[C@@H](Cc3ccc(O)cc3)C(=O)N(Cc3cccc4c(-c5ccc(NC(=O)NC6CCCCC6)nc5)cn(C)c34)C[C@@H]2N1C(=O)NCc1ccccc1 [Compound D-92] |
| 13.5 nM | C=CCN1CC(=O)N2[C@@H](Cc3ccc(O)cc3)C(=O)N(Cc3cccc4c(C(=O)N5CCN(Cc6ccc(C)cc6)CC5)cn(C)c34)C[C@@H]2N1C(=O)NCc1ccccc1 [Compound E-27] |
| 1.8 nM | C=CCN1CC(=O)N2[C@@H](Cc3ccc(O)cc3)C(=O)N(Cc3cccc4c(-c5ccc(C(=O)N(N)C(C)C)cc5)cn(C)c34)C[C@@H]2N1C(=O)NCc1ccccc1 [Compound D-42] |
| 5.5 nM | C=CCN1CC(=O)N2[C@@H](Cc3ccc(O)cc3)C(=O)N(Cc3cccc4c(-c5cccc(C(=O)NCc6ccccc6)c5)cn(C)c34)C[C@@H]2N1C(=O)NCc1ccccc1 [Compound D-28] |
| 4.6 nM | C=CCN1CC(=O)N2[C@@H](Cc3ccc(O)cc3)C(=O)N(Cc3cccc4c(C(=O)NCCc5cccnc5)cn(C)c34)C[C@@H]2N1C(=O)NCc1ccccc1 [Compound F-52] |
| 1.2 nM | C=CCN1CC(=O)N2[C@@H](Cc3ccc(O)cc3)C(=O)N(Cc3cccc4c(-c5ccc(C(=O)NN(C)C)cc5)cn(C)c34)C[C@@H]2N1C(=O)NCc1ccccc1 [Compound D-36] |
| 2 nM | C=CCN1CC(=O)N2[C@@H](Cc3ccc(O)cc3)C(=O)N(Cc3cccc4c(C(=O)N5CCN6CCN(CC7CCCCC7)CC6C5)cn(C)c34)C[C@@H]2N1C(=O)NCc1ccccc1 (stereo partly drawn) [Compound E-46] |
| 5 nM | C=CCN1CC(=O)N2C(Cc3ccc(O)cc3)C(=O)N(Cc3cccc4c(C(=O)Nc5ccc(NCCN6CCN(C)CC6)nc5)cn(C)c34)CC2N1C(=O)NCc1ccccc1 (stereo not drawn) [Compound G-30] |
| 1.3 nM | C=CCN1CC(=O)N2[C@@H](Cc3ccc(O)cc3)C(=O)N(Cc3cccc4c(-c5ccc(NC(=O)C6CCN(C(C)=O)CC6)cc5)cn(C)c34)C[C@@H]2N1C(=O)NCc1ccccc1 [Compound D-61] |
| 10.8 nM | C=CCN1CC(=O)N2[C@@H](Cc3ccc(O)cc3)C(=O)N(Cc3cccc4c(-c5ccc(C(=O)NC6CCN(C)CC6)o5)cn(C)c34)C[C@@H]2N1C(=O)NCc1ccccc1 [Compound D-103] |
| 3.7 nM | C=CCN1CC(=O)N2[C@@H](Cc3ccc(O)cc3)C(=O)N(Cc3cccc4c(-c5ccc(C(=O)N6CCN(C)CC6)o5)cn(C)c34)C[C@@H]2N1C(=O)NCc1ccccc1 [Compound D-105] |
| 4.5 nM | C=CCN1CC(=O)N2[C@@H](Cc3ccc(O)cc3)C(=O)N(Cc3cccc4c(C(=O)N5CCN(C6CC6)CC5)cn(C)c34)C[C@@H]2N1C(=O)NCc1ccccc1 [Compound E-17] |
| 6.1 nM | C=CCN1CC(=O)N2[C@@H](Cc3ccc(O)cc3)C(=O)N(Cc3cccc4c(C(=O)N(C)CCCc5c(C)nn(C)c5C)cn(C)c34)C[C@@H]2N1C(=O)NCc1ccccc1 [Compound F-38] |
| 2 nM | C=CCN1CC(=O)N2[C@@H](Cc3ccc(O)cc3)C(=O)N(Cc3cccc4c(-c5ccc(C(=O)Nc6ccc(CN)cc6)cc5)cn(C)c34)C[C@@H]2N1C(=O)NCc1ccccc1 [Compound D-19] |
| 1.1 nM | C=CCN1CC(=O)N2C(CN(Cc3cccc4c(-c5ccc(NC(=O)C6CCN(C)CC6)cc5)cn(C)c34)C(=O)[C@@H]2Cc2ccc(O)cc2)N1C(=O)NCc1ccccc1 (stereo partly drawn) [Compound D-60] |

| GI50 | Structure (SMILES) |
| --- | --- |
| 1.3 nM | C=CCN1CC(=O)N2[C@@H](Cc3ccc(O)cc3)C(=O)N(Cc3cccc4c(-c5cccc(C(=O)N6CCN(C)CC6)c5)cn(C)c34)C[C@@H]2N1C(=O)NCc1ccccc1 [Compound D-2] |
| 8.4 nM | C=CCN1CC(=O)N2[C@@H](Cc3ccc(O)cc3)C(=O)N(Cc3cccc4c(C(=O)N5CCN(Cc6ccc(OC)cc6)CC5)cn(C)c34)C[C@@H]2N1C(=O)NCc1ccccc1 [Compound E-36] |
| 4.3 nM | C=CCN1CC(=O)N2[C@@H](Cc3ccc(O)cc3)C(=O)N(Cc3cccc4c(-c5ccc(C(=O)NCc6ccccc6)cc5)cn(C)c34)C[C@@H]2N1C(=O)NCc1ccccc1 [Compound D-27] |
| 1.2 nM | C=CCN1CC(=O)N2[C@@H](Cc3ccc(O)cc3)C(=O)N(Cc3cccc4c(-c5ccc(C(=O)N(C)CCN(C)C)cc5)cn(C)c34)C[C@@H]2N1C(=O)NCc1ccccc1 [Compound D-40] |
| 1.3 nM | C=CCN1CC(=O)N2[C@@H](Cc3ccc(O)cc3)C(=O)N(Cc3cccc4c(-c5ccc(NC(=O)N6CCC(N(C)C)CC6)cc5)cn(C)c34)C[C@@H]2N1C(=O)NCc1ccccc1 [Compound D-65] |
| 1.3 nM | C=CCN1CC(=O)N2C(CN(Cc3cccc4c(C(=O)Nc5ccc(N6CCC(N7CCOCC7)CC6)nc5)cn(C)c34)C(=O)[C@@H]2Cc2ccc(O)cc2)N1C(=O)NCc1ccccc1 (stereo partly drawn) [Compound G-56] |
| 1.2 nM | C=CCN1CC(=O)N2[C@@H](Cc3ccc(O)cc3)C(=O)N(Cc3cccc4c(-c5ccc(NC(=O)c6ccc(CN)cc6)cc5)cn(C)c34)C[C@@H]2N1C(=O)NCc1ccccc1 [Compound D-53] |
| 1.9 nM | C=CCN1CC(=O)N2[C@@H](Cc3ccc(O)cc3)C(=O)N(Cc3cccc4c(C(=O)N(C)CCCN5CCN(C)CC5)cn(C)c34)C[C@@H]2N1C(=O)NCc1ccccc1 [Compound F-31] |
| 1.3 nM | C=CCN1CC(=O)N2[C@@H](Cc3ccc(O)cc3)C(=O)N(Cc3cccc4c(-c5ccc(C(=O)NN6C(C)CNCC6C)cc5)cn(C)c34)C[C@@H]2N1C(=O)NCc1ccccc1 (stereo partly drawn) [Compound D-32] |
| 15.4 nM | C=CCN1CC(=O)N2[C@@H](Cc3ccc(O)cc3)C(=O)N(Cc3cccc4c(C(=O)N5CCN(c6ccc(O)cc6)CC5)cn(C)c34)C[C@@H]2N1C(=O)NCc1ccccc1 [Compound E-40] |
| 17.8 nM | C=CCN1CC(=O)N2[C@@H](Cc3ccc(O)cc3)C(=O)N(Cc3cccc4c(C(=O)N(C)Cc5ccccn5)cn(C)c34)C[C@@H]2N1C(=O)NCc1ccccc1 [Compound F-43] |
| 6.9 nM | C=CCN1CC(=O)N2[C@@H](Cc3ccc(O)cc3)C(=O)N(Cc3cccc4c(C(=O)N5CCN6CCN(CC7CCC7)CC6C5)cn(C)c34)C[C@@H]2N1C(=O)NCc1ccccc1 (stereo partly drawn) [Compound E-49] |
| 1.2 nM | C=CCN1CC(=O)N2C(CN(Cc3cccc4c(C(=O)Nc5ccc(N(C)C)cc5)cn(C)c34)C(=O)[C@@H]2Cc2ccc(O)cc2)N1C(=O)NCc1ccccc1 (stereo partly drawn) [Compound G-14] |
| 5.7 nM | C=CCN1CC(=O)N2[C@@H](Cc3ccc(O)cc3)C(=O)N(Cc3cccc4c(-c5ccc(C(C)=O)s5)cn(C)c34)C[C@@H]2N1C(=O)NCc1ccccc1 [Compound H-8] |
| 6.3 nM | C=CCN1CC(=O)N2[C@@H](Cc3ccc(O)cc3)C(=O)N(Cc3cccc4c(-c5ccc(C(=O)NC6CCN(C(C)C)CC6)o5)cn(C)c34)C[C@@H]2N1C(=O)NCc1ccccc1 [Compound D-104] |
| 2.3 nM | C=CCN1CC(=O)N2[C@@H](Cc3ccc(O)cc3)C(=O)N(Cc3cccc4c(C(=O)N5CCN(Cc6ccccc6)CC5)cn(C)c34)C[C@@H]2N1C(=O)NCc1ccccc1 [Compound E-26] |
| 1.4 nM | C=CCN1CC(=O)N2[C@@H](Cc3ccc(O)cc3)C(=O)N(Cc3cccc4c(-c5ccc(C(=O)NNC)cc5)cn(C)c34)C[C@@H]2N1C(=O)NCc1ccccc1 [Compound D-33] |
| 1.2 nM | C=CCN1CC(=O)N2[C@@H](Cc3ccc(O)cc3)C(=O)N(Cc3cccc4c(-c5ccc(C(N)=O)cc5)cn(C)c34)C[C@@H]2N1C(=O)NCc1ccccc1 [Compound D-7] |
| 15 nM | C=CCN1CC(=O)N2[C@@H](Cc3ccc(O)cc3)C(=O)N(Cc3cccc4c(-c5ccc(C(=O)NNC(C)C)cc5)cn(C)c34)C[C@@H]2N1C(=O)NCc1ccccc1 [Compound D-35] |
| 11.6 nM | C=CCN1CC(=O)N2[C@@H](Cc3ccc(O)cc3)C(=O)N(Cc3cccc4c(C(=O)N(C)Cc5cccnc5)cn(C)c34)C[C@@H]2N1C(=O)NCc1ccccc1 [Compound F-41] |

same assay, conditions: MV-4-11 cells, 72 hours; read-out: MV4-11 GI50

| GI50 | Structure (SMILES) |
| --- | --- |
| 18.4 nM | C=CCN1CC(=O)N2[C@@H](Cc3ccc(O)cc3)C(=O)N(Cc3cccc4c(C(=O)N5CCN(Cc6ccccn6)CC5)cn(C)c34)C[C@@H]2N1C(=O)NCc1ccccc1 [Compound E-29] |
